Measurements published in EP1280528B1, “R-ELIPRODIL FOR TREATING GLAUCOMA” (Alcon, Inc, priority 2000, dated 2001).
“Also recorded” adds a separate entry of the source.

What was measured:
[1] = U.S. Patent No. 5,547,963; cited from earlier work
[2] = system: lateral vestibular nucleus; experiment: NMDA-induced firing rate of the lateral vestibular nucleus in vivo
[3] = system: pentobarbital-anesthetized cats; experiment: hemodynamic and electrocardiographic parameters in anesthetized cats; details: increasing doses 0.01 to 3 mg/kg, five-minute intravenous infusion every 20 minutes
Description: (§1) Eliprodil and its enantiomers were evaluated for their potential for prolonging QTc by determining their dose-related effects on cardiac electrical activity. Two different experimental models were utilized for these studies: (1) Action potential duration in piglet Purkinje fibers from the heart and (2) Electrocardiographic parameters in pentobarbital anesthetized cats.
Eliprodil and its two enantiomers were also evaluated for hemodynamic and electrocardiographic parameters in pentobarbital-anesthetized cats. […] Compounds were administered at increasing doses from 0.01 to 3 mg/kg as a five-minute intravenous infusion every 20 minutes. […]

5-HT2A = 5-HT2A (Homo sapiens, UniProt P28223); experiment: binding studies, 5-HT2A
Sequence of 5-HT2A (P28223 whole entry): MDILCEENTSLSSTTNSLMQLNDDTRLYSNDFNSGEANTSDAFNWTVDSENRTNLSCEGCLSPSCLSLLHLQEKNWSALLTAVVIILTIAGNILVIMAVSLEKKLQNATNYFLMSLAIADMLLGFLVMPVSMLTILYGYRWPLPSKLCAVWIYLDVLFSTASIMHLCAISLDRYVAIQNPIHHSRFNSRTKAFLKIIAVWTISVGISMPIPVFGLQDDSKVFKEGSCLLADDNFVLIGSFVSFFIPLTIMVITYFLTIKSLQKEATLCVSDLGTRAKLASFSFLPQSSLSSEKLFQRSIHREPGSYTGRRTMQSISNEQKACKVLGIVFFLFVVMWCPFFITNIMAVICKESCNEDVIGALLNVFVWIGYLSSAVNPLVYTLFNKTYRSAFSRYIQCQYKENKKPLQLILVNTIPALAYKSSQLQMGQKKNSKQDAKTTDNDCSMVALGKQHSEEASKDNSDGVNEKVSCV
Source text: (§2) The role of these pharmacological activities in the neuroprotective efficacy has not been established for this drug.

humans = details: following some doses in humans; cited from earlier work
5-HT uptake = 5-HT uptake (Homo sapiens, UniProt P31645); experiment: binding studies, 5-HT uptake
Sequence of 5-HT uptake (P31645 whole entry): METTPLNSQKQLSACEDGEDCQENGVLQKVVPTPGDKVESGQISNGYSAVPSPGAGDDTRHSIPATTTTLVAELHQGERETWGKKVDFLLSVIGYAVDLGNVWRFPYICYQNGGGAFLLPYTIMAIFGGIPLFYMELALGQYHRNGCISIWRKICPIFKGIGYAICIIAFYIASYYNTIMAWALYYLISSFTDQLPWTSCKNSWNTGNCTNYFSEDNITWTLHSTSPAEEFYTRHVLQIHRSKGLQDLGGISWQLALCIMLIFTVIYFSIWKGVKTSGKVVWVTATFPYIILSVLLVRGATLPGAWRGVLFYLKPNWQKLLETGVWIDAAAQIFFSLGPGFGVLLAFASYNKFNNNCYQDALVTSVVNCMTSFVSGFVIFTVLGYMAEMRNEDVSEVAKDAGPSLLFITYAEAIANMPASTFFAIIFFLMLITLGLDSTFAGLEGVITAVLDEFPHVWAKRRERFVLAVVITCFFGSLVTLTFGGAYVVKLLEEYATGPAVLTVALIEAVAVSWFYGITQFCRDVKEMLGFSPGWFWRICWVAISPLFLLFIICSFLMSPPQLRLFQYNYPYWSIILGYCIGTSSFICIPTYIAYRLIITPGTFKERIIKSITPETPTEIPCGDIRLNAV
Source text: as §2

histamine H1 = histamine H1 (Homo sapiens, UniProt P35367); experiment: binding studies, histamine H1
Sequence of histamine H1 (P35367 whole entry): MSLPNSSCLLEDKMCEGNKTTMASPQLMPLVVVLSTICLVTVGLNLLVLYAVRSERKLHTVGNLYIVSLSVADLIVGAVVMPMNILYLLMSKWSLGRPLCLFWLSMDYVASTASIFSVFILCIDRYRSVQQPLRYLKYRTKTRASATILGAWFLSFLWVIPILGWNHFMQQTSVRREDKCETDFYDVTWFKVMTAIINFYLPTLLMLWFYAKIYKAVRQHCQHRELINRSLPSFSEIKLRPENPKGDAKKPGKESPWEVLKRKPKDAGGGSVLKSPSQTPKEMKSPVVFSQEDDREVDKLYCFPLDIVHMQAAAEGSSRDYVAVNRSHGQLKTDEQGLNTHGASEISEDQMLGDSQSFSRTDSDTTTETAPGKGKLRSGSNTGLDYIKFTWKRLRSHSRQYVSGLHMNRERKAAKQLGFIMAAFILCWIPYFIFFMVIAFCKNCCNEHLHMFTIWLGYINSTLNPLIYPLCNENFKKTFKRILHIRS
Source text: as §2

5-HT1A = molecular target: T1, 5-HT1A (Homo sapiens, UniProt P08908); experiment: binding studies, 5-HT1A
T1 sequence (P08908 1-422): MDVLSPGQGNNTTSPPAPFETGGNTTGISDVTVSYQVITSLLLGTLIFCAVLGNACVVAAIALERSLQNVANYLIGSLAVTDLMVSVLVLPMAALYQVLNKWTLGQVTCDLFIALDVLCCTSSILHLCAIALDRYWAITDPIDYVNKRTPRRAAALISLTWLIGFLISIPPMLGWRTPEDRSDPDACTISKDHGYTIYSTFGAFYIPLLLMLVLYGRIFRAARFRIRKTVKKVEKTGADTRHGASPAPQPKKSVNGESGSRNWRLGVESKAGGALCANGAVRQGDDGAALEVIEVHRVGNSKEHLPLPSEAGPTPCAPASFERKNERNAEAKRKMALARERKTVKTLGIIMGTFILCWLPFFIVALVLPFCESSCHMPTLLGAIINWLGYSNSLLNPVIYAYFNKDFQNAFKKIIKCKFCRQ
Source text: as §2

[4] = system: rat retinal ganglion cells; experiment: glutamate-induced rat retinal ganglion cell death; format: cell-based; details: 10nM for 30 minutes, then 100µM glutamate, viable cells counted after 3 days; Figure 1
Source text: Retinal ganglion cells were selected as they represent the retinal cell that degenerates in glaucoma. MK-801 was selected as a reference NMDA antagonist.
Isolation of rat retinal ganglion cells and assessment of viability in the absence and presence of glutamate was described in Pang, et al., "Protection by Eliprodil Against Excitotoxicity in Cultured Rat Retinal Ganglion Cells", Investigative Ophthalmology & Visual Science, Vol. 40(6), pp. 1170-1176, May, 1999. Briefly, isolated cultured rat retinal ganglion cells were treated with racemic (R/S) eliprodil (10nM), R-eliprodil (10nM), or S-eliprodil (10nM) for thirty (30) minutes followed by the addition of 100µM glutamate. Survival was determined by counting viable cells after an incubation period of three (3) days. Survival with vehicle alone defines 100%. […] S-eliprodil was ineffective.

[5] = system: piglet Purkinje fibers from the heart; experiment: action potential duration in piglet Purkinje fibers; details: for maximum effect on APD90: comparison between compounds; for concentration with statistically significant prolongation of APD90: action potential duration at 90% repolarization
Description: as §1

β3-adrenergic = β3-adrenergic (Homo sapiens, UniProt P13945); experiment: binding studies, β3-adrenergic
Sequence of β3-adrenergic (P13945 whole entry): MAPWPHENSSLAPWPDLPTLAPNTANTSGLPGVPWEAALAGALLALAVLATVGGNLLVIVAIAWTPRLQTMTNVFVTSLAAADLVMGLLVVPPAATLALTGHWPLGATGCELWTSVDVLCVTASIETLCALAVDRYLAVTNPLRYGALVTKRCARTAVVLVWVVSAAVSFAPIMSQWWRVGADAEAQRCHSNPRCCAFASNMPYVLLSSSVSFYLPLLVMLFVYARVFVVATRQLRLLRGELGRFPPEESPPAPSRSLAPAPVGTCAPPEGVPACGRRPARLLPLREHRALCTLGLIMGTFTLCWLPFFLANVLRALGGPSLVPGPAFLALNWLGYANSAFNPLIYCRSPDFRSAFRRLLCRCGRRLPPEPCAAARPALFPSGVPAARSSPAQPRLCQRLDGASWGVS
Source text: as §2

sigma receptors = details: rat brain; U.S. Patent No. 5,023,266; cited from earlier work
histamine H2 = histamine H2 (Homo sapiens, UniProt P25021); experiment: binding studies, histamine H2
Sequence of histamine H2 (P25021 whole entry): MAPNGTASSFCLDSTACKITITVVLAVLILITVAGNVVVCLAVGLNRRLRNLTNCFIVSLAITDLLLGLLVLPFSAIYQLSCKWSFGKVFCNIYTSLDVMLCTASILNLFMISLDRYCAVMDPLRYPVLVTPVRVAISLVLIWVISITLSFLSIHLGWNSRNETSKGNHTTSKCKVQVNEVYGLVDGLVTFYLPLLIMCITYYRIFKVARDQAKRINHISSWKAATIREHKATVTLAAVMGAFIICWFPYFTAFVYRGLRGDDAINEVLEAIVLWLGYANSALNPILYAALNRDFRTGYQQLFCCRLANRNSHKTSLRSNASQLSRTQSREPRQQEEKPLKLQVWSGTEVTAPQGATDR
Source text: as §2

5-HT7 = 5-HT7 (Homo sapiens, UniProt P34969); experiment: binding studies, 5-HT7
Sequence of 5-HT7 (P34969 whole entry, species assumed): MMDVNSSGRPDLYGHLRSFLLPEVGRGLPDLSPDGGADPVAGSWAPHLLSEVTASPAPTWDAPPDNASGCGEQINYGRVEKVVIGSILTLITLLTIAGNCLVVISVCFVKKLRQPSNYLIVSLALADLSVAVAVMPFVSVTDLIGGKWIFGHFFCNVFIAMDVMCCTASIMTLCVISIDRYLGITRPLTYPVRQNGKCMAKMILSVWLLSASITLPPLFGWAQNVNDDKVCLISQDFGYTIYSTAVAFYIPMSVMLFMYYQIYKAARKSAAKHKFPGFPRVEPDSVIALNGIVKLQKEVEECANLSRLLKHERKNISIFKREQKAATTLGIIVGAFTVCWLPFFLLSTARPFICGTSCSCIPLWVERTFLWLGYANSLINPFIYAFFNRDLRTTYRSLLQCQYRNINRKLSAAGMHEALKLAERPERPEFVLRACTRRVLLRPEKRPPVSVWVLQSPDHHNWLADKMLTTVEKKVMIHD
Source text: as §2

hippocampal slices = experiment: recovery of synaptic transmission after hypoxia in hippocampal slices; format: cell-based; details: for efficacy for recovery of excitatory post synaptic potentials following hypoxia: at a comparable dose
Description: Dose-response relations comparing the efficacy of Racemic (R/S)-eliprodil (open circles), R-eliprodil (closed circles) and memantine (closed diamonds) for their ability to improve recovery of synaptic transmission following a 15 minute period of hypoxia in hippocampal slices in vitro (Figure 2).
Preparation of the hypoxic hippocampal slice preparation has been reported by Reyes et al., "Eliprodil, a non-competitive, NR2B-selective NMDA antagonist, protects pyramidal neurons in hippocampal slices from hypoxic/ischemic damage", Brain Research, Vol. 782, pp. 212-218, 1998. Briefly, hippocampal slices were prepared acutely the same day as the experiment, and each compound was bath applied 30 minutes prior to delivery of the 15 minute hypoxic insult. Recovery of evoked epsps is expressed as percent of the initial, pre-hypoxia epsp maximum slope, with this percent recovery assessed 60 minutes after reoxygenation. Each point is the mean ± S.E.M. of 8 slices at each dose, and EC50's were calculated from a single-active site Lineweaver-Burke linear fit.

α1-adrenergic = experiment: binding studies, α1-adrenergic
Source text: as §2

NMDA receptor = NMDA receptor (Homo sapiens, UniProt Q05586+Q13224); experiment: electrophysiology and ligand displacement studies at the NMDA receptor; format: binding
Sequence of NMDA receptor (Q13224 27-1484, other chains not shown): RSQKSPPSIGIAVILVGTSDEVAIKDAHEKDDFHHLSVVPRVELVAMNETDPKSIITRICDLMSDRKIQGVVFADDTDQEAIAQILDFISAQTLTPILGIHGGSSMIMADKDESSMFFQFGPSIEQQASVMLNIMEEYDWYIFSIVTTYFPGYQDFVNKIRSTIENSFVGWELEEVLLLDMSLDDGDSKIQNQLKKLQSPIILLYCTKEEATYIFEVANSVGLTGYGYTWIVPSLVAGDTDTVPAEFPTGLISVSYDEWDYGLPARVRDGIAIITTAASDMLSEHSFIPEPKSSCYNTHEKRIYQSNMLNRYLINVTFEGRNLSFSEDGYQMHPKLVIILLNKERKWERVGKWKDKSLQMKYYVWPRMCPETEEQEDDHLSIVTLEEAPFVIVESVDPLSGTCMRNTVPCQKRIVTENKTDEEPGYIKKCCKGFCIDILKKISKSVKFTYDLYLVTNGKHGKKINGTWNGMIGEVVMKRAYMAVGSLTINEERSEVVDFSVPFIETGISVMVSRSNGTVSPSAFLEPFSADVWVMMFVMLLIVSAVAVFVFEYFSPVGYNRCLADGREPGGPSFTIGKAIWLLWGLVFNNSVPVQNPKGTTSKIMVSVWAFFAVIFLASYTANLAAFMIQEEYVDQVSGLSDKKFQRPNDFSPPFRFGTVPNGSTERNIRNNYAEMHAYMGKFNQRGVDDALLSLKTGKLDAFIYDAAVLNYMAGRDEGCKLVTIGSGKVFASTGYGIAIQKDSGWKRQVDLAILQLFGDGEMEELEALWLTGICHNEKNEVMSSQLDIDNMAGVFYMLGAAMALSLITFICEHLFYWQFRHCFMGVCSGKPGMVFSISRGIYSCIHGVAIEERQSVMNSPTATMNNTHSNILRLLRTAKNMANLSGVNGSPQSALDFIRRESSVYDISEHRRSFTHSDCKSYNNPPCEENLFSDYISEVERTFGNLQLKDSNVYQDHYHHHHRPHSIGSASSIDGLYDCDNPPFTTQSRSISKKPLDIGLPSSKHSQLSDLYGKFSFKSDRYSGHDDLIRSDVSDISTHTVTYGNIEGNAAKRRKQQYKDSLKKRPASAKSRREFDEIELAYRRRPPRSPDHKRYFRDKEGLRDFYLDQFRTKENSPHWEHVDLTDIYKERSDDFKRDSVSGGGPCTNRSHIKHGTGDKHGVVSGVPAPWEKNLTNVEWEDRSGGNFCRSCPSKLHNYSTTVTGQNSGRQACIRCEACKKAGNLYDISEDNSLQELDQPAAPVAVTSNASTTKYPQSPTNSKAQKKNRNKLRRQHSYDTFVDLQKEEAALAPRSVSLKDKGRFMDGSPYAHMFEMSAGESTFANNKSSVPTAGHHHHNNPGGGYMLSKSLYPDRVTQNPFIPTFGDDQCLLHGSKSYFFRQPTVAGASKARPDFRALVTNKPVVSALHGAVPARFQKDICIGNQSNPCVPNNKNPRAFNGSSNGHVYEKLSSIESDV

[6] = plasma level in the anesthetized cat protocol; format: in vivo; details: 0.1 mg/kg dose, intravenous infusion

SMILES	neurotrophic effects [1]	inhibition of NMDA-induced firing rate [2]	Threshold Dose, Heart Rate Decrease [3] [mg/kg]	Threshold Dose, Mean Blood Pressure Decrease [3] [mg/kg]	Threshold Dose, QTc Prolongation [3] [mg/kg]	neuroprotective effect (survival of retinal ganglion cells) [4]	maximum effect on APD90 [5]	efficacy for recovery of excitatory post synaptic potentials following hypoxia (hippocampal slices)	Ki (NMDA receptor) [µM]	concentration with statistically significant prolongation of APD90 [5] [nM]	also measured
OC(CN1CCC(Cc2ccc(F)cc2)CC1)c1ccc(Cl)cc1 (racemic) [Eliprodil]	Equipotency	strongly inhibit	0.1	1.0	0.03	marked neuroprotective activity	equal to that of S(+) eliprodil	less effective	–	–	affinity (5-HT2A): sub-micromolar; QTc prolongation (humans): asymptomatic QTc prolongation; affinity (5-HT uptake): sub-micromolar; affinity (histamine H1): sub-micromolar; affinity (5-HT1A): sub-micromolar; affinity (β3-adrenergic): sub-micromolar; binding to sigma receptors (sigma receptors): potently bind; affinity (histamine H2): sub-micromolar; affinity (5-HT7): sub-micromolar; affinity (α1-adrenergic): sub-micromolar
O[C@@H](CN1CCC(Cc2ccc(F)cc2)CC1)c1ccc(Cl)cc1 [R-eliprodil, R-α-(4-chlorophenyl)-4-(4-fluorophenylmethyl)-1-peperidineethanol]	Equipotency	strongly inhibit	0.3	1.0	0.1	marked neuroprotective activity; also recorded: as efficacious as a protectant as racemic eliprodil	less than that seen with S(+) eliprodil	substantial recovery; also recorded: more efficacious than either racemic or S-eliprodil	0.2	≥ 100	plasma level [6]: 34.9 ± 2.8 ng/mL; potency for recovery of evoked epsps (EC50 comparison) (hippocampal slices; bath applied 30 minutes before 15 minute hypoxia, recovery 60 minutes after reoxygenation, p<0.05, Figure 2): statistically significantly more potent
O[C@H](CN1CCC(Cc2ccc(F)cc2)CC1)c1ccc(Cl)cc1 [S-eliprodil]	Equipotency	almost inactive at the highest dose tested	0.1	1.0	0.01	ineffective	–	less effective	10	≥ 30	–
